What was measured:
[1] = test system: interferon (α) (IFN-α); assay: Cytokine induction in human cells: IFN-α secreted by PBMC into culture media (ELISA); assay type: cell-based; details: for minimal effective concentration / Maximal Response IFN / Minimum Effective Concentration IFN: human PBMC; for minimal effective concentration: lowest tested concentration inducing IFN-α over usually 20 pg/mL, median where more than one experiment, read-out: Minimum Effective Concentration (μM) IFN; for Maximal Response IFN / Minimum Effective Concentration IFN: median where tested in more than one experiment; for Maximal Response (pg/mL) IFN: maximal response in dose response curve, median
Source text: (§1) Cytokine Induction in Human Cells
(§2) An in vitro human blood cell system is used to assess cytokine induction. Activity is based on the measurement of interferon (α) and tumor necrosis factor (α) (IFN-α and TNF-α, respectively) secreted into culture media as described by Testerman et. al. in “Cytokine Induction by the Immunomodulators Imiquimod and S-27609”, Journal of Leukocyte Biology, 58, 365-372 (September, 1995).
(§3) Blood Cell Preparation for Culture
(§4) Whole blood from healthy human donors is collected by venipuncture into vacutainer tubes or syringes containing EDTA. Peripheral blood mononuclear cells (PBMC) are separated from whole blood by density gradient centrifugation using HISTOPAQUE-1077 (Sigma, St. Louis, Mo.) or Ficoll-Paque Plus (Amersham Biosciences Piscataway, N.J.). Blood is diluted 1:1 with Dulbecco's Phosphate Buffered Saline (DPBS) or Hank's Balanced Salts Solution (HBSS). Alternately, whole blood is placed in Accuspin (Sigma) or LeucoSep (Oreiner Bio-One, Inc., Longwood, Fla.) centrifuge frit tubes containing density gradient medium. The PBMC layer is collected and washed twice with DPBS or HBSS and re-suspended at 4×10^6 cells/mL in RPMI complete. The PBMC suspension is added to 96 well flat bottom sterile tissue culture plates containing an equal volume of RPMI complete media containing test compound.
(§5) The compounds are solubilized in dimethyl sulfoxide (DMSO). The DMSO concentration should not exceed a final concentration of 1% for addition to the culture wells. The compounds are generally tested at concentrations ranging from 30-0.014 μM. Controls include cell samples with media only, cell samples with DMSO only (no compound), and cell samples with reference compound.
(§6) The solution of test compound is added at 60 μM to the first well containing RPMI complete and serial 3 fold dilutions are made in the wells. The PBMC suspension is then added to the wells in an equal volume, bringing the test compound concentrations to the desired range (usually 30-0.014 μM). The final concentration of PBMC suspension is 2×10^6 cells/mL. The plates are covered with sterile plastic lids, mixed gently and then incubated for 18 to 24 hours at 37° C. in a 5% carbon dioxide atmosphere.
(§7) Following incubation the plates are centrifuged for 10 minutes at 1000 rpm (approximately 200×g) at 4° C. The cell-free culture supernatant is removed and transferred to sterile polypropylene tubes. Samples are maintained at −30 to −70° C. until analysis. The samples are analyzed for IFN-α by ELISA and for TNF-α by IGEN/BioVeris Assay.
(§8) Interferon (α) and Tumor Necrosis Factor (α) Analysis
IFN-α concentration is determined with a human multi-subtype calorimetric sandwich ELISA (Catalog Number 41105) from PBL Biomedical Laboratories, Piscataway, N.J. Results are expressed in pg/mL.
(§9) In total, the data output of the assay consists of concentration values of TNF-α and IFN-α (y-axis) as a function of compound concentration (x-axis).
Analysis of the data has two steps. First, the greater of the mean DMSO (DMSO control wells) or the experimental background (usually 20 pg/mL for IFN-α and 40 pg/mL for TNF-α) is subtracted from each reading. If any negative values result from background subtraction, the reading is reported as “*”, and is noted as not reliably detectable. In subsequent calculations and statistics, “*”, is treated as a zero. Second, all background subtracted values are multiplied by a single adjustment ratio to decrease experiment to experiment variability. The adjustment ratio is the area of the reference compound in the new experiment divided by the expected area of the reference compound based on the past 61 experiments (unadjusted readings). […] The reference compound used is 2-[4-amino-2-ethoxymethyl-6,7,8,9-tetrahydro-α,α-dimethyl-1H-imidazo[4,5-c]quinolin-1-yl]ethanol hydrate (U.S. Pat. No. 5,352,784; Example 91) and the expected area is the sum of the median dose values from the past 61 experiments. […]

[2] = test system: tumor necrosis factor (α) (TNF-α); assay: Cytokine induction in human cells: TNF-α secreted by PBMC into culture media (ORIGEN M-Series immunoassay); assay type: cell-based; parameters: key to Maximal Response (pg/mL) TNF / Maximal Response TNF: If any negative values result from background subtraction, the reading is reported as “*”, and is noted as not reliably detectable; details: for minimal effective concentration / Minimum Effective Concentration TNF / Maximal Response TNF: human PBMC; for minimal effective concentration: lowest tested concentration inducing TNF-α over usually 40 pg/mL, median where more than one experiment, read-out: Minimum Effective Concentration (μM) TNF; for Minimum Effective Concentration TNF: median where tested in more than one experiment; for Maximal Response TNF / Maximal Response (pg/mL) TNF: median; for Maximal Response (pg/mL) TNF: maximal response in dose response curve
Source text: as §1, §2, §3, §4, §5, §6, §7, §8
The TNF-α concentration is determined by ORIGEN M-Series Immunoassay and read on an IGEN M-8 analyzer from BioVeris Corporation, formerly known as IGEN International, Gaithersburg, Md. The immunoassay uses a human TNF-α capture and detection antibody pair (Catalog Numbers AHC3419 and AHC3712) from Biosource International, Camarillo, Calif. Results are expressed in pg/mL.
as §9
Analysis of the data has two steps. First, the greater of the mean DMSO (DMSO control wells) or the experimental background (usually 20 pg/mL for IFN-α and 40 pg/mL for TNF-α) is subtracted from each reading. If any negative values result from background subtraction, the reading is reported as “*”, and is noted as not reliably detectable. In subsequent calculations and statistics, “*”, is treated as a zero. Second, all background subtracted values are multiplied by a single adjustment ratio to decrease experiment to experiment variability. The adjustment ratio is the area of the reference compound in the new experiment divided by the expected area of the reference compound based on the past 61 experiments (unadjusted readings). […]

[3] = Table 11, * = TNF below experimental background of 40 pg/mL
[4] = Table 8, background-subtracted, reference-adjusted
[5] = Table 12, * = below the experimental background of 40 pg/mL
[6] = Table 10, * = below experimental background level

| SMILES | Maximal Response IFN ([1]; Table 11) | Minimum Effective Concentration IFN ([1]; Table 11) | Minimum Effective Concentration TNF ([2]; Table 11) | Maximal Response TNF [2, 3] | Maximal Response (pg/mL) IFN [1, 6] | further results |
| --- | --- | --- | --- | --- | --- | --- |
| CC(C)Cn1c(CCO)nc2c(N)nc3cc(-c4cncc(CO)c4)ccc3c21 [Example 159] | – | – | – | – | – | minimal effective concentration ([1]; Table 10): 0.12 µM; minimal effective concentration ([2]; Table 10): 10 µM |
| Nc1nc2ccccc2c2c1nc(CCO)n2CCCCNC(=O)c1cnc2ccccc2n1 [Example 117] | 5520 pg/mL | 0.37 µM | 3.33 µM | 1938 pg/mL | – | – |
| CC(C)(O)Cn1c(CO)nc2c(N)nc3cccnc3c21 [Example 148, 1-(4-Amino-2-hydroxymethyl-1H-imidazo[4,5-c][1,5]naphthyridin-1-yl)-2-methylpropan-2-ol] | – | – | – | – | – | Maximal Response (pg/mL) IFN [1, 4]: 3038 pg/mL; Maximal Response IFN ([1]; Table 12): 2290 pg/mL; Maximal Response (pg/mL) TNF [2, 4]: 684 pg/mL; Maximal Response TNF [2, 5]: 1316 pg/mL |
| CCCc1nc2c(N)nc3cc(-c4cncc(CO)c4)ccc3c2n1CC(C)(C)O [Analog 17] | – | – | – | – | 1079 pg/mL | minimal effective concentration ([1]; Table 10): 0.014 µM; minimal effective concentration ([2]; Table 10): 0.12 µM; Maximal Response (pg/mL) TNF [2, 6]: 16482 pg/mL |
| COCCc1nc2c(N)nc3ccccc3c2n1CCCCNC(=O)c1nccc2ccccc12 [Analog 112] | 2127 pg/mL | 0.014 µM | 0.04 µM | 1462 pg/mL | – | – |
| CCCc1nc2c(N)nc3cc(-c4cccnc4)ccc3c2n1CCCCNC(=O)C1CCCC1 [Analog 36] | – | – | – | – | 521 pg/mL | minimal effective concentration ([1]; Table 10): 0.12 µM; minimal effective concentration ([2]; Table 10): 0.37 µM; Maximal Response (pg/mL) TNF [2, 6]: 2222 pg/mL |
| CCOCc1nc2c(N)nc3ccccc3c2n1CCCCNS(C)(=O)=O [Analog 51] | 2581 pg/mL | 0.04 µM | 1.11 µM | 1439 pg/mL | – | – |
| CC(C)(Cn1c(CO)nc2c(N)nc3ccccc3c21)CS(C)(=O)=O [Example 364, {4-Amino-1-[2,2-dimethyl-3-(methylsulfonyl)propyl]-1H-imidazo[4,5-c]quinolin-2-yl}methanol] | 5343 pg/mL | – | – | 164 pg/mL | – | – |
| CCOCc1nc2c(N)nc3ccccc3c2n1CC(C)(C)CNS(C)(=O)=O [Analog 66] | 561 pg/mL | 0.12 µM | 0.37 µM | 3768 pg/mL | – | – |
| CCOCc1nc2c(N)nc3ccccc3c2n1CC(C)(C)CNC(=O)Nc1ccccc1 [Analog 91] | 1133 pg/mL | 0.014 µM | 0.04 µM | 3618 pg/mL | – | – |
| Cc1nc2c(N)nc3ccccc3c2n1CCCCNS(C)(=O)=O [Analog 48] | 7293 pg/mL | 0.12 µM | 10 µM | 526 pg/mL | – | – |
| COCCc1nc2c(N)nc3cc(-c4cncc(CO)c4)ccc3c2n1CC(C)C [Analog 27] | – | – | – | – | 1332 pg/mL | minimal effective concentration ([1]; Table 10): 0.014 µM; minimal effective concentration ([2]; Table 10): 0.04 µM; Maximal Response (pg/mL) TNF [2, 6]: 9563 pg/mL |
| CCCc1nc2c(N)nc3ccccc3c2n1CCNS(C)(=O)=O [Analog 70] | 2003 pg/mL | 30 µM | 10 µM | 11432 pg/mL | – | – |
| Nc1nc2cc(-c3cncc(CO)c3)ccc2c2c1nc(CO)n2CC1CCCCC1 [Example 205] | – | – | – | – | 1087 pg/mL | – |
| CC(C)CC(=O)NCCn1c(CCO)nc2c(N)nc3ccccc3c21 [Example 138] | 36 pg/mL | 3.33 µM | >30 µM | * | – | – |
| COCCc1nc2c(N)nc3cccnc3c2n1CC(C)(C)O [Analog 7, 1-[4-amino-2-(2-methoxyethyl)-1H-imidazo[4,5-c][1,5]naphthyridin-1-yl]-2-methylpropan-2-ol] | – | – | – | – | – | Maximal Response (pg/mL) IFN [1, 4]: 4143 pg/mL; Maximal Response IFN ([1]; Table 12): 3142 pg/mL; Maximal Response (pg/mL) TNF [2, 4]: 7762 pg/mL; Maximal Response TNF [2, 5]: 7503 pg/mL |
| COCCc1nc2c(N)nc3cc(-c4cccnc4)ccc3c2n1CC(C)(C)O [Analog 12] | – | – | – | – | 1065 pg/mL | minimal effective concentration ([1]; Table 10): 0.014 µM; minimal effective concentration ([2]; Table 10): 0.014 µM; Maximal Response (pg/mL) TNF [2, 6]: 8386 pg/mL |
| Cc1nc2c(N)nc3cccnc3c2n1CC(C)C [Analog 133, 2-methyl-1-(2-methylpropyl)-1H-imidazo[4,5-c][1,5]naphthyridin-4-amine] | – | – | – | – | – | Maximal Response IFN ([1]; Table 12): 1117 pg/mL; Maximal Response TNF [2, 5]: 699 pg/mL |
| CN(CCOCCn1c(CCO)nc2c(N)nc3ccccc3c21)S(C)(=O)=O [Example 133] | 8361 pg/mL | 0.37 µM | >30 µM | * | – | – |
| CC(C)(O)Cn1c(CO)nc2c(N)nc3cc(-c4cncc(CO)c4)ccc3c21 [Example 189] | – | – | – | – | 4357 pg/mL | – |
| CC(C)C(=O)N1CCC(Cn2c(CO)nc3c(N)nc4cc(-c5cccnc5)ccc4c32)CC1 [Example 191] | – | – | – | – | 969 pg/mL | – |
| Nc1nc2ccccc2c2c1nc(CCO)n2CCCNC(=O)c1cc2ccccc2cn1 [Example 2, N-{3-[4-Amino-2-(2-hydroxyethyl)-1H-imidazo[4,5-c]quinolin-1-yl]propyl}isoquinoline-3-carboxamide] | 507 pg/mL | – | – | – | – | – |
| CC(C)NC(=O)NCCn1c(CO)nc2c(N)nc3ccccc3c21 [Example 365, N-{2-[4-amino-2-(hydroxymethyl)-1H-imidazo[4,5-c]quinolin-1-yl]ethyl}-N′-isopropylurea] | 1488 pg/mL | – | – | – | – | – |
| CC(C)(N)Cn1c(CO)nc2c(N)nc3ccccc3c21 [Example 4, 1-(2-Amino-2-methylpropyl)-2-hydroxymethyl-1H-imidazo[4,5-c]quinolin-4-amine] | 1893 pg/mL | – | – | – | – | – |
| Nc1nc2cc(-c3cccc(C(=O)N4CCOCC4)c3)ccc2c2c1nc(CO)n2CC1CCCCC1 [Example 206] | – | – | – | – | 1266 pg/mL | – |
